Laboratory results from article PMC5390315 (Scientific Reports, 2017).

What was measured:
A549 = experiment: Antiproliferative MTT assay, A549; type: cell-based, human; details: Homo sapiens, A549, 72 h, mean ± SE
Description: (§1) Human T-cell leukemia (Jurkat) and human B-cell leukemia (SEM and RS4;11) cells were grown in RPMI-1640 medium (Gibco, Milano, Italy). Breast adenocarcinoma (MCF-7), human cervix carcinoma (HeLa), human lung adenocarcinoma (A549) and human colon adenocarcinoma (HT-29) cells were grown in DMEM medium (Gibco, Milano, Italy), all supplemented with 115 units/mL penicillin G (Gibco, Milano, Italy), 115 μg/mL streptomycin (Invitrogen, Milano, Italy), and 10% fetal bovine serum (FBS; Invitrogen, Milano, Italy). Stock solutions (10 mM) of the different compounds were obtained by dissolving them in DMSO. Individual wells of a 96-well tissue culture microtiter plate were inoculated with 100 μL of complete medium containing 8 × 10^3 cells. The plates were incubated at 37 °C in a humidified 5% CO2 incubator for 18 h prior to the experiments. After medium removal, 100 μL of fresh medium containing the test compound at different concentrations was added to each well in triplicate and incubated at 37 °C for 72 h. The percentage of DMSO in the medium never exceeded 0.25%. This was also the maximum DMSO concentration in all cell-based assays described below.

Jurkat = experiment: Antiproliferative MTT assay, Jurkat; type: cell-based, human; details: Homo sapiens, Jurkat, 72 h, mean ± SE
Description: as §1

HeLa cells [1] = experiment: Western blot analysis of cell cycle and apoptosis proteins; type: cell-based, human
Description: HeLa cells were incubated in the presence of 4i and, after different times, were collected, centrifuged, and washed two times with ice cold phosphate buffered saline (PBS). The pellet was then resuspended in lysis buffer. After the cells were lysed on ice for 30 min, lysates were centrifuged at 15000× g at 4 °C for 10 min. The protein concentration in the supernatant was determined using the BCA Protein Assay (Pierce, Italy). Equal amounts of protein (10 μg) were resolved using sodium dodecyl sulfate-polyacrylamide gel electrophoresis (SDS-PAGE) (Criterion Precast, BioRad, Italy) and transferred to a PVDF Hybond-P membrane (GE Healthcare). Membranes were blocked with a bovine serum albumin solution (5% in Tween PBS 1X), the membranes being gently rotated overnight at 4 °C. Membranes were then incubated with primary antibodies against caspase-9, PARP, cdc25c, p-H2AX^Ser139, cyclin B, p-cdc2^Tyr15 (all from Cell Signaling) or β-actin (Sigma-Aldrich) for 2 h at room temperature. Membranes were next incubated with peroxidase labeled secondary antibodies for 60 min. All membranes were visualized using ECL Select (GE Healthcare), and images were acquired using an Uvitec-Alliance imaging system (Uvitec, Cambridge, UK). To ensure equal protein loading, each membrane was stripped and reprobed with anti-β-actin antibody.

[2] = system: PBL not stimulated with PHA; experiment: Cytotoxicity in resting peripheral blood lymphocytes; type: cell-based; details: Homo sapiens, Lymphocyte, 72 h, MTT, mean ± SEM, read-out: IC50 PBLresting
Description: Peripheral blood lymphocytes (PBL) from healthy donors were obtained from human peripheral blood (leucocyte rich plasma- buffy coats) from healthy volunteers using the Lymphoprep (Fresenius KABI Norge AS) gradient density centrifugation.
After extensive washing, cells were resuspended (1.0 × 10^6 cells/mL) in RPMI-1640 with 10% FBS and incubated overnight. For cytotoxicity evaluations in proliferating PBL cultures, non-adherent cells were resuspended at 5 × 10^5 cells/mL in growth medium, containing 2.5 μg/mL PHA (Irvine Scientific). Different concentrations of the test compounds were added, and viability was determined 72 h later by the MTT test. For cytotoxicity evaluations in resting PBL cultures, non-adherent cells were resuspended (5 × 10^5 cells/mL) and treated for 72 h with the test compounds, as described above.

[3] = system: BL6-B16 murine melanoma cells; experiment: Mouse allograft tumor model (BL6-B16 melanoma); type: in vivo
From the text: Animal experiments were approved by our local animal ethics committee (OPBA, Organismo Preposto al Benessere degli Animali, Università degli Studi di Brescia, Italy) and were executed in accordance with national guidelines and regulations. Procedures involving animals and their care conformed with institutional guidelines that comply with national and international laws and policies (EEC Council Directive 86/609, OJ L 358, 12 December 1987) and with “ARRIVE” guidelines (Animals in Research Reporting In Vivo Experiments). Six week old C57BL/6 mice (Charles River, Calco) were injected subcutaneously into the dorsolateral flank with 2.5x10^5 BL6-B16 murine melanoma cells in 200 μL of PBS. When tumors were palpable, animals were treated intraperitoneally every other day with different doses of test compounds dissolved in 50 μL of DMSO. Tumors were measured in two dimensions, and tumor volume was calculated according to the formula V = (D × d^2)/2, where D and d are the major and minor perpendicular tumor diameters, respectively.

Jurkat cells [4] = experiment: ROS production (H2-DCFDA), Jurkat; type: cell-based, human; details: 100 nM, untreated about 4%
Jurkat cells [5] = experiment: Annexin-V/PI apoptosis assay, Jurkat; type: cell-based, human; details: 60 nM, 24 h
Description: (§2) Cell death was determined by flow cytometry of cells double stained with annexin V/FITC and PI. The Coulter Cytomics FC500 (Beckman Coulter) was used to measure the surface exposure of PS on apoptotic cells according to the manufacturer’s instructions (Annexin-V Fluos, Roche Diagnostics).

HeLa cells [6] = experiment: Annexin-V/PI apoptosis assay, HeLa; type: cell-based, human; details: 60 nM, 24 h
Description: as §2

MCF-7 = experiment: Antiproliferative MTT assay, MCF-7; type: cell-based, human; details: Homo sapiens, MCF7, 72 h, mean ± SE
Description: as §1

HUVECs = experiment: HUVEC scratch wound motility assay; type: cell-based, human; details: 100 nM, 6 h and 24 h
Description: HUVECs were prepared from human umbilical cord veins, as previously described. The adherent cells were maintained in M200 medium supplemented with LSGS (Low Serum Growth Supplement), containing FBS, hydrocortisone, hEGF, bFGF, heparin, gentamycin/amphotericin (Life Technologies, Monza, Italy). Once confluent, the cells were detached by a trypsin–EDTA solution and used in experiments from the first to sixth passages.
The motility assay for HUVECs was based on “scratch” wounding of a confluent monolayer. Briefly, HUVECs (1x10^5) were seeded onto 6-well plates coated with 0.1% collagen type I (BD Biosciences, Italy) in complete medium until a confluent monolayer was formed. The cells were wounded using a pipette tip, and wells were washed with PBS to remove undetached cells. Then, the cells were treated with the test compounds, and, at different times from the scratch, the cells were photographed under a light microscope. At all indicated time points, the wound width was measured in four areas and compared with the initial width.

Structure (SMILES): CCOc1ccc(-c2oc(C)nc2-c2cc(OC)c(OC)c(OC)c2)cc1 [Compound 4i, 4-(3,4,5-Trimethoxyphenyl)-5-(4-ethoxyphenyl)-2-methyloxazole]
- IC50 (A549): 0.5 ± 0.1 nM
- IC50 (Jurkat): 4.1 ± 1.1 nM
- expression of Mcl-1 (HeLa cells [1]; 100 nM): only slightly decreased
- total cdc25c expression (HeLa cells [1]; 100 nM, 24 and 48 h): reduced
- XIAP expression (HeLa cells [1]; 24 and 48 h): significantly reduced
- cyclin B1 expression (HeLa cells [1]; 24 and 48 h, concentration dependent): marked increase
- PARP cleavage (HeLa cells [1]; 50 or 100 nM, 24 and 48 h): appearance of its cleavage fragments
- phosphorylation of γH2A.X (Ser139) (HeLa cells [1]; 48 h): great increase
- expression of phosphorylated cdc2 (HeLa cells [1]; most noticeable at 24 h, 100 nM): decreased
- IC50 [2]: 14900 ± 3500 nM
- reduction in tumor mass ([3]; 3.0 mg/kg i.p. on days 9, 11 and 14): 34.9%
- reduction in tumor mass ([3]; 7.5 mg/kg i.p. on days 9, 11 and 14): 52.5%
- signs of toxicity in mice ([3]; highest dose (7.5 mg/kg i.p.)): did not show any sign of toxicity
- animal body weight ([3]; highest dose (7.5 mg/kg i.p.), data not shown): did not cause a decrease in animal body weight
- DCF positive cells (ROS production) (Jurkat cells [4]): 25–30%
- apoptotic cells (annexin-V) (Jurkat cells [5]): 40%
- apoptotic cells (annexin-V) (HeLa cells [6]): 70%
- IC50 (MCF-7): 4.5 ± 1.8 nM
- HUVEC cell migration (wound healing) (HUVECs): significantly reduced
